A word on the IC50: it is the concentration that inhibits the measured activity by half.

The target of experiment [1] is T1, GBA2 (Homo sapiens, UniProt Q9HCG7).
T1 sequence (Q9HCG7 1-927): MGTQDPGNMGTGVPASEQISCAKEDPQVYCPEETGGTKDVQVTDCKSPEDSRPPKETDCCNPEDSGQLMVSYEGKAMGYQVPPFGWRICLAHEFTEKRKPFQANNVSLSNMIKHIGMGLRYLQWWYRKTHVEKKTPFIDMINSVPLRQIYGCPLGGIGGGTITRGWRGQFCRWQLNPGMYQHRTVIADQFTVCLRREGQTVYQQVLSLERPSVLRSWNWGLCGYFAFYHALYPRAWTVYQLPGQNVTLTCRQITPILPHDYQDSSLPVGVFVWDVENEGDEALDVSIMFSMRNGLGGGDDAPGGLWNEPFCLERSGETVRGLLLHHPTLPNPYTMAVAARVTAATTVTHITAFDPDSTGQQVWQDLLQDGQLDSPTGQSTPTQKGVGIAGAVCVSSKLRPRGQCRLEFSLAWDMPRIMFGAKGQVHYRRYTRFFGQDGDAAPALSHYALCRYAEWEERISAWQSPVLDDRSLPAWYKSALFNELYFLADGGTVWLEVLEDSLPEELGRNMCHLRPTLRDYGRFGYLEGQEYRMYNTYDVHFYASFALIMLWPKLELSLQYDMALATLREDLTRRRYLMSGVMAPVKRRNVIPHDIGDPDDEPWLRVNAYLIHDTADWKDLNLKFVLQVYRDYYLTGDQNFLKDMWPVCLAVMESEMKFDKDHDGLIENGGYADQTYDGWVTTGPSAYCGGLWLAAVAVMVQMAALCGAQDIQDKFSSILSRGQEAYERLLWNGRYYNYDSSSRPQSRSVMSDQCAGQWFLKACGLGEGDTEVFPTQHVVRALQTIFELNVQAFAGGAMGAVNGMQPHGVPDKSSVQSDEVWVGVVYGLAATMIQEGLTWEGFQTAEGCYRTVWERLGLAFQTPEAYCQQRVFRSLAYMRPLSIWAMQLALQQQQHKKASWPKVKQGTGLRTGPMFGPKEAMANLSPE
The experiment is described as follows: Determination of IC50 values for inhibition of GBA2 in cell lysate. The experiment is classed as biochemical. Set-up: host or cells: HEK293T (lentiviral transduction, puromycin selection); used as cellular homogenate. In short, it runs like this: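 Homogenate of HEK293T cells stably overexpressing human GBA2 (0.083 mg/mL final), pretreated with 20 μM GCase inhibitor, preincubated 5 min at 37 °C with compound, then reacted 20 min with 250 μM 4-methylumbelliferyl-β-D-glucopyranoside at pH 5.5 (citrate-phosphate, 1% C10E6). Fluorescence read at 365/450 nm after alkaline stop; IC50 from log-inhibitor curve fit.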

Experiment [2] concerns the target T1, GBA2. Description: Binding specificity (selectivity) for GBA2 over other enzymes. The experiment is classed as biochemical. The conditions noted are these: compared to a suitable reference compound, e.g. NB-DNJ (miglustat) or AMP-DNM. From the text: In some embodiments, one or more of the compounds according to the invention may specifically bind a GBA2. In alternative embodiments, one or more of the compounds according to the invention may specifically bind the active site of a GBA2. […] In alternative embodiments, one or more of the compounds according to the invention may specifically bind the human non-lysosomal glucosylceramidase (GBA2) over the human lysosomal glucosylceramidase (GCase) and/or the human cytosolic glucosylceramidase (GBA3). In alternative embodiments, one or more of the compounds according to the invention may specifically bind the human non-lysosomal glucosylceramidase (GBA2) over the human glucosylceramide synthase (GCS). In alternative embodiments, one or more of the compounds according to the invention may specifically bind the human non-lysosomal glucosylceramidase (GBA2) over an intestinal alpha-glucosidase, where the intestinal alpha-glucosidase may be a sucrase-isomaltase or a maltase-glucoamylase.

The mark [3] stands for this setting: cellular homogenate of HEK293T cells overexpressing human GBA2, 250 μM 4-methylumbelliferone-β-D glucopyranoside, pH 5.5, 37° C., GCase inhibitor present, read-out: GBA2 IC50.

The structures appear in SMILES notation. Read-outs that look alike come from different tables or passages of the source.

As for `C[C@@H]1[C@@H](O)[C@H](O)[C@@H](O)CN1C[C@H]1CCN(c2ncccc2C(F)(F)F)C1` [Example 120, (2R,3R,4R,5S)-2-methyl-1-(((R)-1-(3-(trifluoromethyl)pyridin-2-yl)pyrrolidin-3-yl)methyl)piperidine-3,4,5-triol], the IC50 in experiment [1] (setting [3]) was less than 100 nM. In experiment [2], the “binding specificity (IC50 or Ki of other molecule / GBA2)” value is reported as “enhanced binding specificity”.
On the same counts, the results for `C[C@@H]1[C@@H](O)[C@H](O)[C@@H](O)CN1C[C@H]1CCN(c2ccccc2F)C1` [Example 116, (2R,3R,4R,5S)-1-(((R)-1-(2-fluorophenyl)pyrrolidin-3-yl)methyl)-2-methylpiperidine-3,4,5-triol] are less than 100 nM and “enhanced binding specificity”.
For `C[C@@H]1[C@@H](O)[C@H](O)[C@@H](O)CN1C[C@H]1CCN(c2ccccc2C(F)(F)F)C1` [Example 115, (2R,3R,4R,5S)-2-methyl-1-(((R)-1-(2-(trifluoromethyl)phenyl)pyrrolidin-3-yl)methyl)piperidine-3,4,5-triol] the same measures were less than 100 nM and “enhanced binding specificity”.
For `C[C@@H]1[C@@H](O)[C@H](O)[C@@H](O)CN1C[C@@H]1CCCN(c2cnccc2C(F)(F)F)C1` [Example 142, (2R,3R,4R,5S)-2-methyl-1-(((S)-1-(4-(trifluoromethyl)pyridin-3-yl)piperidin-3-yl)methyl)piperidine-3,4,5-triol] the same measures were less than 100 nM and “enhanced binding specificity”.
`O[C@H]1[C@H](O)[C@@H](O)CN(CCc2c(F)cc(-c3ccccc3)cc2F)[C@@H]1CF` [Example 151, (2S,3R,4R,5S)-1-(2-(3,5-difluoro-[1,1′-biphenyl]-4-yl)ethyl)-2-(fluoromethyl)piperidine-3,4,5-triol]: in experiment [1] (setting [3]), the IC50 was less than 100 nM. Moreover, the “binding specificity (IC50 or Ki of other molecule / GBA2)” value in experiment [2] was “enhanced binding specificity”.
For `C[C@@H]1[C@@H](O)[C@H](O)[C@@H](O)CN1CCc1c(F)cc(N2CCOCC2)cc1F` [Example 58, (2R,3R,4R,5S)-1-(2,6-difluoro-4-morpholinophenethyl)-2-methylpiperidine-3,4,5-triol] the same measures were less than 100 nM and “enhanced binding specificity”.
Consider `C[C@@H]1[C@@H](O)[C@H](O)[C@@H](O)CN1CCc1ccc2c(c1)OCCO2` [Example 73, (2R,3R,4R,5S)-1-(2-(2,3-dihydrobenzo[b][1,4]dioxin-6-yl)ethyl)-2-methylpiperidine-3,4,5-triol], for which, in experiment [1], the concentration for half-maximal inhibition (IC50) is less than 100 nM. Also, in experiment [2], the “binding specificity (IC50 or Ki of other molecule / GBA2)” value is given as “enhanced binding specificity”.
Consider `O[C@H]1[C@H](O)[C@@H](O)CN(C[C@H]2CC[C@H](C(F)(F)F)CC2)[C@@H]1CF` [Example 147, (2S,3R,4R,5S)-2-(fluoromethyl)-1-(((1r,4S)-4-(trifluoromethyl)cyclohexyl)methyl)piperidine-3,4,5-triol], for which, in experiment [1] (setting [3]), the IC50 is less than 100 nM. The “binding specificity (IC50 or Ki of other molecule / GBA2)” value in experiment [2] was “enhanced binding specificity”.
For `C[C@@H]1[C@@H](O)[C@H](O)[C@@H](O)CN1C[C@H]1CC[C@@H](C(F)(F)F)CC1` [Example 11, (2R,3R,4R,5S)-2-methyl-1-(((1s,4S)-4-(trifluoromethyl)cyclohexyl)methyl)piperidine-3,4,5-triol] the same measures were less than 100 nM and “enhanced binding specificity”.
On the same counts, the results for `C[C@@H]1[C@@H](O)[C@H](O)[C@@H](O)CN1CCc1c(F)cc(N2CCCCC2)cc1F` [Example 57, (2R,3R,4R,5S)-1-(2,6-difluoro-4-(piperidin-1-yl)phenethyl)-2-methylpiperidine-3,4,5-triol] are less than 100 nM and “enhanced binding specificity”.
Take `C[C@@H]1[C@@H](O)[C@H](O)[C@@H](O)CN1CCc1c(F)cc(C2CC2)cc1F` [Example 53, (2R,3R,4R,5S)-1-(4-cyclopropyl-2,6-difluorophenethyl)-2-methylpiperidine-3,4,5-triol]: in experiment [1], the IC50 is less than 100 nM. In addition, in experiment [2], the “binding specificity (IC50 or Ki of other molecule / GBA2)” value was “enhanced binding specificity”.
For the compound `C[C@@H]1[C@@H](O)[C@H](O)[C@@H](O)CN1C[C@H]1CCN(c2cccc3scnc23)C1` [Example 129, (2R,3R,4R,5S)-1-(((R)-1-(benzo[d]thiazol-4-yl)pyrrolidin-3-yl)methyl)-2-methylpiperidine-3,4,5-triol], in experiment [1] (setting [3]), the IC50 was less than 100 nM. Moreover, the “binding specificity (IC50 or Ki of other molecule / GBA2)” value in experiment [2] is on record as “enhanced binding specificity”.
On to `C[C@@H]1[C@@H](O)[C@H](O)[C@@H](O)CN1C[C@H]1CC[C@@H](C2CC2)CC1` [Example 20, (2R,3R,4R,5S)-1-(((1s,4S)-4-cyclopropylcyclohexyl)methyl)-2-methylpiperidine-3,4,5-triol], for which, in experiment [1] (setting [3]), the half-maximal inhibitory concentration (IC50) was less than 100 nM. Moreover, in experiment [2], the “binding specificity (IC50 or Ki of other molecule / GBA2)” value was “enhanced binding specificity”.
On the same counts, the results for `C[C@@H]1[C@@H](O)[C@H](O)[C@@H](O)CN1C[C@H]1CCCN(c2ncccc2C(F)(F)F)C1` [Example 138, (2R,3R,4R,5S)-2-methyl-1-(((R)-1-(3-(trifluoromethyl)pyridin-2-yl)piperidin-3-yl)methyl)piperidine-3,4,5-triol] are less than 100 nM and “enhanced binding specificity”.
On the same counts, the results for `C[C@@H]1[C@@H](O)[C@H](O)[C@@H](O)CN1C[C@H]1CCCN(c2ccccc2F)C1` [Example 137, (2R,3R,4R,5S)-1-(((R)-1-(2-fluorophenyl)piperidin-3-yl)methyl)-2-methylpiperidine-3,4,5-triol] are less than 100 nM and “enhanced binding specificity”.
For `C[C@@H]1[C@@H](O)[C@H](O)[C@@H](O)CN1C[C@H]1CCN(c2ccccc2OC(F)(F)F)C1` [Example 118, (2R,3R,4R,5S)-2-methyl-1-(((R)-1-(2-(trifluoromethoxy)phenyl)pyrrolidin-3-yl)methyl)piperidine-3,4,5-triol] the same measures were less than 100 nM and “enhanced binding specificity”.

For the origin of these results see patent US12612380B2, “Non-lysosomal glucosylceramidase inhibitors and uses thereof” (ALECTOS THERAPEUTICS INC., priority 2019, dated 2026).
